20 molecules from ChEMBL document CHEMBL1177655, “Synthesis and inhibitory activities of novel C-3 substituted azafagomines: a new type of selective inhibitors of α-L-fucosidases” (Bioorg Med Chem, 2010) can be followed below.

Test [1] has as its system Aspergillus niger. Description: Inhibition of Aspergillus niger amyloglucosidase at 1 mM.
In test [2] the target is T1, Tissue alpha-L-fucosidase (Bos taurus) (UniProt Q2KIM0).
T1 sequence (whole entry): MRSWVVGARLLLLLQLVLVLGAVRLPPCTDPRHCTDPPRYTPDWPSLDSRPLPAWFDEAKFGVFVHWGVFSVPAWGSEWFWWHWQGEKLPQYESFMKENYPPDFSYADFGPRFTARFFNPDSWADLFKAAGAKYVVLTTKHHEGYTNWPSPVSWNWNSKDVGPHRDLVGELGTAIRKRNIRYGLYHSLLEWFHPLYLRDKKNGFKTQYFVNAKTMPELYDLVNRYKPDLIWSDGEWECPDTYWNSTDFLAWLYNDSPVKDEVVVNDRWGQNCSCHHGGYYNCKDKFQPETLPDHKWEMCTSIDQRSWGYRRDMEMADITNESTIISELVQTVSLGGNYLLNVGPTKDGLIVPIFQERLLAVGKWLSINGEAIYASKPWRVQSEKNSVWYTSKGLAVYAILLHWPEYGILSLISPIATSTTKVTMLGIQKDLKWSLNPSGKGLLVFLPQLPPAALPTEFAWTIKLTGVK
Description: Inhibition of bovine kidney alpha L-fucosidase at 1 mM.

In test [3] the test system is Saccharomyces cerevisiae. As to the kind of experiment: Inhibition of yeast maltase at 1 mM.
Test [4] concerns the target Beta-galactosidase (Escherichia coli K-12) (UniProt P00722). As to the kind of experiment: Inhibition of Escherichia coli beta galactosidase at 1 mM.
Test [5] relates to Prunus dulcis. Description: Inhibition of almond beta glucosidase at 1 mM.
Test [6] has as its target T2, Tissue alpha-L-fucosidase (Bos taurus, UniProt Q2KIM0).
T2 sequence (Q2KIM0 whole entry): T1 sequence (whole entry)
As to the kind of experiment: Inhibition of bovine kidney alpha L-fucosidase.

Test [7] concerns the target T1, Tissue alpha-L-fucosidase (Bos taurus). As to the kind of experiment: Inhibition of bovine kidney alpha L-fucosidase at 0.1 mM.
Test [8] concerns Aspergillus niger. As to the kind of experiment: Inhibition of Aspergillus niger amyloglucosidase at 0.1 mM.
Test [9] concerns Prunus dulcis. Description: Inhibition of almond beta glucosidase at 0.1 mM.
Test [10] concerns the target Beta-galactosidase (Escherichia coli K-12) (UniProt P00722). As to the kind of experiment: Inhibition of Escherichia coli beta galactosidase at 0.1 mM.
The subject of test [11] is Saccharomyces cerevisiae. As to the kind of experiment: Inhibition of yeast maltase at 0.1 mM.

What is called inhibition is the drop in the measured response relative to a control, in per cent. As a reminder, the IC50 is the point on the concentration scale where inhibition reaches its midpoint. A word on the Ki: it is the dissociation constant of the complex between target and ligand, obtained from inhibition or displacement. Low values mean a stronger hold on the target, high ones a looser hold on the target.

Structures are written as SMILES. Activity calls are given as the source filed them. The rule behind the calls is not given here.

Beta-galactosidase (Escherichia coli K-12), sequence (P00722 whole entry): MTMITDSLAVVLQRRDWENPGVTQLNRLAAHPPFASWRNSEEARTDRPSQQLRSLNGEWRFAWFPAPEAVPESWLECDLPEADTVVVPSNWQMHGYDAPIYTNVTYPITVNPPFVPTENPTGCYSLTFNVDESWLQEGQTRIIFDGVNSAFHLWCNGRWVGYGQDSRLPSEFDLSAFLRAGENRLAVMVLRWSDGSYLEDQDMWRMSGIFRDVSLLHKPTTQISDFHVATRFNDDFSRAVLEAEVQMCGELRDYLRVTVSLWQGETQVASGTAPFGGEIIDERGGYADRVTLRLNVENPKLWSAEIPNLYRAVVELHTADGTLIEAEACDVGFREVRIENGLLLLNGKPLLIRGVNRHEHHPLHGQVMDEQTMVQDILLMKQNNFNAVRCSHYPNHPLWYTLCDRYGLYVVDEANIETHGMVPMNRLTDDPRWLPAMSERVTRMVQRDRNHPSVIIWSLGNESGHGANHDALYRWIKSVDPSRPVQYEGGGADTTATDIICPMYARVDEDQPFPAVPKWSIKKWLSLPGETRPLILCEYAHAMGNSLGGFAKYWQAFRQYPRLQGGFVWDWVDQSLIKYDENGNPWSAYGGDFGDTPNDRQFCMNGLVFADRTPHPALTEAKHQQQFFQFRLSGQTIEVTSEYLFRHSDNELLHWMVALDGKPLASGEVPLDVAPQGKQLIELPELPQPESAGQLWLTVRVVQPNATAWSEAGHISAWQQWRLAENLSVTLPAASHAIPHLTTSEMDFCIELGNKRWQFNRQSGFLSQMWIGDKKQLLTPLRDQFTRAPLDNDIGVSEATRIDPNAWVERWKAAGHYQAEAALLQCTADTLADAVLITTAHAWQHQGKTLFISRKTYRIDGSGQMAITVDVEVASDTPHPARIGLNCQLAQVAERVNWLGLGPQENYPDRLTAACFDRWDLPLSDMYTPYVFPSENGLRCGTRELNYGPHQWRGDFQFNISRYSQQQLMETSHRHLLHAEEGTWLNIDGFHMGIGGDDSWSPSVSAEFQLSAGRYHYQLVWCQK

For `C[C@@H]1[C@@H](O)[C@@H](O)[C@H](CO)NN1C(=O)OCc1ccccc1`, the inhibition result (in the test with Aspergillus niger [1]; in the test with Saccharomyces cerevisiae [3]; in test [4]; in the test on Prunus dulcis [5]) was “inactive” throughout. This molecule displayed an inhibition in [2] of 27%.
In the case of `C[C@@H]1NN[C@@H](CNC(=O)[C@@H](N)CCCCN)[C@H](O)[C@@H]1O`, the inhibition result (in the test with Aspergillus niger [1]; in the test on Saccharomyces cerevisiae [3]; in [4]; with Prunus dulcis [5]) was “inactive” throughout. The inhibition in [2] came out at 77%. Also, the IC50 in [6] is 535 µM.
For `C[C@@H]1[C@@H](O)[C@@H](O)[C@H](CN)NN1C(=O)OCc1ccccc1`, the inhibition result (in the test on Aspergillus niger [1]; in the test with Saccharomyces cerevisiae [3]; in test [4]; in the test on Prunus dulcis [5]) was “inactive” each time. Further, the inhibition in [2] amounted to 54%.
With `CCCCCCCCCCCC(=O)NC[C@@H]1NN(C(=O)OCc2ccccc2)[C@@H](C)[C@@H](O)[C@H]1O`, the inhibition result (with Aspergillus niger [1]; in the test on Saccharomyces cerevisiae [3]; in test [4]; with Prunus dulcis [5]) was “inactive” in each case. Besides, in test [7], the inhibition came out at 5%.
On to `C[C@H]1NN[C@@H](CO)[C@H](O)[C@@H]1O`, for which the inhibition entry (in the test with Aspergillus niger [1]; in the test on Saccharomyces cerevisiae [3]; in [4]) was “inactive” each time. Also, the figures for the inhibition (in test [2]; in the test on Prunus dulcis [5]) were 17% and 23%, respectively.
For the molecule `C[C@@H]1NN[C@@H](CNC(=O)c2ccc(-c3ccccc3)cc2)[C@H](O)[C@@H]1O`, the inhibition in the test on Aspergillus niger [8] was 21%; in [7], 85%. Besides, the inhibition result (with Prunus dulcis [9]; in [10]; in the test on Saccharomyces cerevisiae [11]) was “inactive” throughout. Further, in test [6], half-maximal inhibition (IC50) required 8.6 µM. In test [6], this molecule showed a Ki of 1 µM.
On to `CCCCCCCCCCCC(=O)NC[C@@H]1NN[C@@H](C)[C@@H](O)[C@H]1O`, for which the inhibition result (with Aspergillus niger [1]; in test [4]; in the test with Prunus dulcis [5]) was “inactive” in each case. Further, the inhibition was found to be 70% in test [2] and 51% in the test on Saccharomyces cerevisiae [3].
Consider `C[C@@H]1[C@@H](O)[C@@H](O)[C@H](CNC(=O)[C@@H](N)Cc2ccccc2)NN1C(=O)OCc1ccccc1`, for which the inhibition entry (with Aspergillus niger [1]; in the test with Saccharomyces cerevisiae [3]; in [4]; in the test with Prunus dulcis [5]) was “inactive” throughout. In addition, the inhibition in test [2] turned out to be 16%.
As for `C[C@H]1[C@@H](O)[C@@H](O)[C@H](CNC(=O)[C@@H](N)Cc2ccccc2)NN1C(=O)OCc1ccccc1`, the inhibition result (in the test with Aspergillus niger [1]; in the test with Saccharomyces cerevisiae [3]; in test [4]; in the test on Prunus dulcis [5]) was “inactive” throughout. In addition, in [2], the inhibition was determined as 65%.
In the case of `C[C@H]1NN[C@@H](CNC(=O)c2ccc(-c3ccccc3)cc2)[C@H](O)[C@@H]1O`, the inhibition entry (with Aspergillus niger [1]; in the test with Saccharomyces cerevisiae [3]; in test [4]; with Prunus dulcis [5]) was “inactive” in each case. In addition, in test [2], the inhibition turned out to be 53%.
With `C[C@H]1[C@@H](O)[C@@H](O)[C@H](CN)NN1C(=O)OCc1ccccc1`, the inhibition entry in the test with Aspergillus niger [1], with Saccharomyces cerevisiae [3] and with Prunus dulcis [5] was “inactive” in each case. Further, the values for the inhibition in [2] and in [4] were 92% and 32%, respectively. In test [6], this molecule displayed an IC50 of 117 µM.
With `C[C@@H]1[C@@H](O)[C@@H](O)[C@H](CNC(=O)c2ccc(-c3ccccc3)cc2)NN1C(=O)OCc1ccccc1`, the inhibition result (with Aspergillus niger [8]; with Prunus dulcis [9]; in [10]; in the test on Saccharomyces cerevisiae [11]; in [7]) was “inactive” throughout.
Take `C[C@H]1[C@@H](O)[C@@H](O)[C@H](CO)NN1C(=O)OCc1ccccc1`: the inhibition result (in the test on Aspergillus niger [1]; with Saccharomyces cerevisiae [3]; in test [4]; in the test with Prunus dulcis [5]) was “inactive” throughout. This molecule displayed an inhibition in [2] of 35%.
For `C[C@@H]1NN[C@@H](CO)[C@H](O)[C@@H]1O`, the inhibition entry (with Aspergillus niger [1]; with Saccharomyces cerevisiae [3]; in test [4]; in the test on Prunus dulcis [5]) was “inactive” throughout. Besides, the inhibition in test [2] was 97%. This molecule yielded an IC50 in [6] of 30 µM. This molecule yielded an inhibition constant Ki in [6] of 4.2 µM.
For `C[C@H]1[C@@H](O)[C@@H](O)[C@H](CNC(=O)[C@@H](N)CCCCN)NN1C(=O)OCc1ccccc1`, the inhibition entry (with Aspergillus niger [1]; with Saccharomyces cerevisiae [3]; in [4]; in the test with Prunus dulcis [5]) was “inactive” each time. Besides, in test [2], the inhibition amounted to 77%.
Turning to `CCCCCCCCCCCC(=O)NC[C@@H]1NN[C@H](C)[C@@H](O)[C@H]1O`, the inhibition in the test on Aspergillus niger [1] is 24%; in test [2], 40%. Further, the inhibition entry (in the test on Saccharomyces cerevisiae [3]; in [4]; with Prunus dulcis [5]) was “inactive” each time.
Take `C[C@@H]1NN[C@@H](CNC(=O)[C@@H](N)Cc2ccccc2)[C@H](O)[C@@H]1O`: the inhibition entry (in the test with Aspergillus niger [1]; with Saccharomyces cerevisiae [3]; in test [4]; with Prunus dulcis [5]) was “inactive” in each case. Besides, the inhibition in test [2] stood at 82%. This molecule gave an IC50 in test [6] of 283 µM.
On to `C[C@H]1NN[C@@H](CNC(=O)[C@@H](N)Cc2ccccc2)[C@H](O)[C@@H]1O`, for which the inhibition result (with Aspergillus niger [1]; in [2]; in the test with Saccharomyces cerevisiae [3]; in [4]; in the test on Prunus dulcis [5]) was “inactive” throughout.
Consider `C[C@@H]1NN[C@@H](CN)[C@H](O)[C@@H]1O`, for which the inhibition result (in the test with Aspergillus niger [1]; with Saccharomyces cerevisiae [3]; in test [4]; in the test with Prunus dulcis [5]) was “inactive” each time. Also, in [2], the inhibition turned out to be 44%.
`C[C@H]1NN[C@@H](CN)[C@H](O)[C@@H]1O`: the inhibition entry (in the test on Aspergillus niger [1]; with Saccharomyces cerevisiae [3]; in test [4]; with Prunus dulcis [5]) was “inactive” in each case. In addition, in [2], the inhibition came out at 53%.
